According to ChEMBL document CHEMBL1201862, “PubChem BioAssay data set” (2004):
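Compound exposure: 48 hours, 5 concentrations, 96-well plates. GI50 is the concentration that inhibits growth by half.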 Activity calls are given as the source filed them. Cut-off read from the data, not from the text of the source: active = GI50 up to about 1.1 µM and inactive = higher.

Assays:
Experiment in all cases: DTP human tumour cell line panel, 48 h
SNB-75 = tested on: SNB-75
CCRF-CEM = tested on: CCRF-CEM
ACHN = tested on: ACHN
CAKI-1 = tested on: CAKI-1
LOX IMVI = tested on: LOX IMVI
NCI-H226 = tested on: NCI-H226
KM12 = tested on: KM12
OVCAR-8 = tested on: OVCAR-8
EKVX = tested on: EKVX
TK-10 = tested on: TK-10
SR = tested on: SR
NCI-H23 = tested on: NCI-H23
MDA-MB-435 = tested on: MDA-MB-435
SN12C = tested on: SN12C
OVCAR-5 = tested on: OVCAR-5
DU-145 = tested on: DU-145
SF-539 = tested on: SF-539
PC-3 = tested on: PC-3
SK-MEL-2 = tested on: SK-MEL-2
786-0 = tested on: 786-0
NCI/ADR-RES = tested on: NCI/ADR-RES
RPMI-8226 = tested on: RPMI-8226
SF-295 = tested on: SF-295
Hs-578T = tested on: Hs-578T
MDA-MB-231 = tested on: MDA-MB-231
MCF7 = tested on: MCF7
T47D = tested on: T47D
U-251 = tested on: U-251
SNB-19 = tested on: SNB-19
HOP-92 = tested on: HOP-92
HT-29 = tested on: HT-29
SK-OV-3 = tested on: SK-OV-3
HL-60 = tested on: HL-60
MDA-N = tested on: MDA-N
SK-MEL-5 = tested on: SK-MEL-5
A549 = tested on: A549
IGROV-1 = tested on: IGROV-1
M14 = tested on: M14
MOLT-4 = tested on: MOLT-4
SW-620 = tested on: SW-620
NCI-H460 = tested on: NCI-H460
OVCAR-3 = tested on: OVCAR-3
HCC 2998 = tested on: HCC 2998
RXF 393 = tested on: RXF 393
UO-31 = tested on: UO-31
SK-MEL-28 = tested on: SK-MEL-28
HCT-116 = tested on: HCT-116
COLO 205 = tested on: COLO 205
Malme-3M = tested on: Malme-3M
K562 = tested on: K562
OVCAR-4 = tested on: OVCAR-4
HOP-62 = tested on: HOP-62
UACC-257 = tested on: UACC-257
NCI-H522 = tested on: NCI-H522
UACC-62 = tested on: UACC-62
SF-268 = tested on: SF-268
HCT-15 = tested on: HCT-15
A498 = tested on: A498

Measured: GI50

C[C@@H]1O[C@@H](O[C@H]2C[C@@H](O)[C@]3(CO)[C@H]4[C@H](O)C[C@]5(C)[C@@H](C6=CC(=O)OC6)CC[C@]5(O)[C@@H]4CC[C@]3(O)C2)[C@H](O)[C@H](O)[C@H]1O [OUABAIN]
inactive: CCRF-CEM 21.1 µM
active: SNB-75 0.0162 µM

COc1ccc(/N=N/c2c(-c3c(OC)cc4occc4c3OC)[nH]c(=O)c(C#N)c2C)cc1
> 100 µM: HCT-15
inactive: ACHN > 100 µM | CAKI-1 > 100 µM | LOX IMVI > 100 µM | NCI-H226 > 100 µM | KM12 > 100 µM | OVCAR-8 > 100 µM | EKVX > 100 µM | TK-10 > 100 µM | SR > 100 µM | NCI-H23 > 100 µM | MDA-MB-435 > 100 µM | SN12C > 100 µM | OVCAR-5 > 100 µM | DU-145 > 100 µM | SF-539 > 100 µM | PC-3 > 100 µM | SK-MEL-2 > 100 µM | 786-0 > 100 µM | NCI/ADR-RES > 100 µM | RPMI-8226 > 100 µM | SF-295 > 100 µM | Hs-578T > 100 µM | SNB-75 53.2 µM | MDA-MB-231 > 100 µM | MCF7 > 100 µM | T47D > 100 µM | U-251 > 100 µM | SNB-19 > 100 µM | HOP-92 > 100 µM | CCRF-CEM > 100 µM | HT-29 > 100 µM | SK-OV-3 > 100 µM | HL-60 > 100 µM | MDA-N > 100 µM | SK-MEL-5 > 100 µM | A549 > 100 µM | IGROV-1 76.2 µM | M14 > 100 µM | MOLT-4 > 100 µM | SW-620 > 100 µM | NCI-H460 > 100 µM | OVCAR-3 > 100 µM | HCC 2998 > 100 µM | RXF 393 > 100 µM | UO-31 > 100 µM | SK-MEL-28 > 100 µM | HCT-116 > 100 µM | COLO 205 > 100 µM | Malme-3M 55 µM | K562 > 100 µM | OVCAR-4 > 100 µM | HOP-62 > 100 µM | UACC-257 > 100 µM | NCI-H522 > 100 µM | UACC-62 > 100 µM | SF-268 > 100 µM

COc1ccc([I+]c2ccc(OC)cc2)cc1
> 22.2 µM: HCT-15
inactive: ACHN > 100 µM | CAKI-1 > 100 µM | LOX IMVI 28.6 µM | NCI-H226 32.7 µM | KM12 28.9 µM | OVCAR-8 22.1 µM | EKVX > 75 µM | TK-10 > 100 µM | SR > 50.5 µM | NCI-H23 13 µM | MDA-MB-435 > 56.5 µM | SN12C 40.8 µM | OVCAR-5 > 100 µM | DU-145 99.5 µM | SF-539 > 78.3 µM | PC-3 > 60 µM | SK-MEL-2 > 100 µM | 786-0 50.7 µM | NCI/ADR-RES > 100 µM | RPMI-8226 44.1 µM | SF-295 30 µM | Hs-578T > 100 µM | SNB-75 28.9 µM | MDA-MB-231 > 100 µM | MCF7 46.7 µM | T47D > 95.7 µM | U-251 34 µM | SNB-19 96.8 µM | HOP-92 > 100 µM | CCRF-CEM 74.5 µM | HT-29 39 µM | SK-OV-3 > 100 µM | HL-60 27 µM | SK-MEL-5 5.75 µM | A549 1.87 µM | IGROV-1 > 66.8 µM | M14 54.8 µM | MOLT-4 > 100 µM | A498 > 100 µM | SW-620 > 91.8 µM | NCI-H460 4.47 µM | OVCAR-3 26.7 µM | HCC 2998 > 100 µM | RXF 393 > 100 µM | UO-31 > 100 µM | SK-MEL-28 73.6 µM | COLO 205 60.5 µM | Malme-3M 20.2 µM | K562 21.1 µM | OVCAR-4 > 75.2 µM | HOP-62 12.1 µM | UACC-257 11.6 µM | NCI-H522 > 61.1 µM | UACC-62 > 100 µM | SF-268 > 84.5 µM

CN(CCO)CCC1COc2ccccc2O1 (stereo not given)
> 10 µM: HCT-15
inactive: ACHN > 10 µM | CAKI-1 > 10 µM | LOX IMVI > 10 µM | NCI-H226 > 10 µM | KM12 > 10 µM | OVCAR-8 > 10 µM | EKVX > 10 µM | TK-10 > 10 µM | SR > 10 µM | NCI-H23 > 10 µM | MDA-MB-435 > 10 µM | SN12C > 10 µM | OVCAR-5 > 10 µM | DU-145 > 10 µM | SF-539 > 10 µM | PC-3 > 10 µM | SK-MEL-2 > 10 µM | NCI/ADR-RES > 10 µM | RPMI-8226 > 10 µM | SF-295 > 10 µM | Hs-578T > 10 µM | SNB-75 > 10 µM | MDA-MB-231 > 10 µM | MCF7 > 10 µM | T47D > 10 µM | U-251 > 10 µM | SNB-19 > 10 µM | CCRF-CEM > 10 µM | HT-29 > 10 µM | SK-OV-3 > 10 µM | HL-60 > 10 µM | MDA-N > 10 µM | SK-MEL-5 > 10 µM | A549 > 10 µM | IGROV-1 > 10 µM | M14 > 10 µM | MOLT-4 > 10 µM | A498 > 10 µM | SW-620 > 10 µM | NCI-H460 > 10 µM | OVCAR-3 > 10 µM | HCC 2998 > 10 µM | RXF 393 7.98 µM | UO-31 > 10 µM | SK-MEL-28 > 10 µM | HCT-116 > 10 µM | COLO 205 > 10 µM | Malme-3M > 10 µM | K562 > 10 µM | OVCAR-4 > 10 µM | HOP-62 > 10 µM | NCI-H522 2.21 µM | UACC-62 > 10 µM | SF-268 > 10 µM

C[C@H](CCC(=O)O)[C@H]1CC[C@H]2[C@@H]3CC[C@@H]4C[C@H](O)CC[C@]4(C)[C@H]3CC[C@]12C [LITHOCHOLIC ACID]
inactive: A498 > 100 µM

O=C1/C(=C/c2ccc(Cl)cc2)NC(=S)N1CN1CCCCC1
22.6 µM: HCT-15
inactive: ACHN 24.6 µM | LOX IMVI 37.8 µM | NCI-H226 32.3 µM | KM12 38.7 µM | OVCAR-8 36.7 µM | EKVX 28.2 µM | TK-10 39 µM | SR 34.8 µM | NCI-H23 37.2 µM | MDA-MB-435 45.5 µM | SN12C 40.6 µM | OVCAR-5 37.5 µM | DU-145 45.8 µM | PC-3 48.4 µM | SK-MEL-2 73.1 µM | 786-0 30.2 µM | NCI/ADR-RES 19.3 µM | RPMI-8226 20 µM | SF-295 36.9 µM | Hs-578T 21.5 µM | SNB-75 36.3 µM | MDA-MB-231 49.9 µM | MCF7 29.2 µM | U-251 47.2 µM | SNB-19 17.7 µM | HOP-92 50.5 µM | CCRF-CEM 17.8 µM | HT-29 15.8 µM | SK-OV-3 63.4 µM | MDA-N 63 µM | SK-MEL-5 31 µM | A549 34.1 µM | IGROV-1 33.8 µM | M14 35.1 µM | MOLT-4 30.2 µM | A498 61.5 µM | SW-620 20.7 µM | OVCAR-3 36.7 µM | UO-31 28.1 µM | SK-MEL-28 61.2 µM | HCT-116 34.4 µM | COLO 205 28 µM | Malme-3M 21.5 µM | K562 34 µM | HOP-62 87.9 µM | NCI-H522 18 µM | UACC-62 13.1 µM | SF-268 20.5 µM
